In patent publication US20110105496A1, “Methods For The Treatment Of Myosin Heavy Chain-Mediated Conditions Using 4,7-Dihydrothieno[2,3-B]Pyridine Compounds” (priority 2005, published 2011):
Where two headings read alike, the source gives them in different places.

Test system: alpha-MyHC
Assay: alpha-MyHC cytoblot process in neonatal rat ventricular myocytes (NRVM)
Type: cell-based
[1] = Table 2 (esters), NRVM, 72 hours, alpha-MyHC cytoblot
[2] = Table 2 (esters), NRVM, 72 hours, maximum of dose response fit
[3] = Table 1, NRVM, 72 hours, alpha-MyHC cytoblot, mean ± spread
[4] = Table 1, NRVM, 72 hours, maximum of dose response fit, low control = vehicle only

Row | Structure (SMILES) | EC50 [1] [µM] | EC50 [3] [µM] | Max Plateau [2] | Max Plateau [4] | further results
1 | CCC(=O)C1=C(CC)Nc2sc(C(=O)c3ccc(Cl)cc3Cl)c(N)c2C1c1ccccc1 (stereo not shown) [Compound 70] |  | 0.0517 |  | 191.97 ± 13.09 per cent fraction of low control | 
2 | CC1=C(C(=O)OCCN)C(c2ccccc2)c2c(sc(C(=O)c3ccc(Cl)c(Cl)c3)c2N)N1 (racemic) [compound 213] |  |  |  |  | EC50: 0.326 µM; Max Plateau: 208.56 ± 23.45
3 | CC(=O)C1=C(C)Nc2sc(C(=O)c3ccncc3)c(N)c2C1c1ccccc1 (stereo not shown) [Compound 10] |  | 2.68 |  | 210.00 ± 36.06 per cent fraction of low control | 
4 | CCOC(=O)C1=C(CC)Nc2sc(C(=O)c3ccc(F)c(F)c3)c(N)c2C1c1ccncc1F (stereo not shown) [Compound 173] |  |  | 257.43 per cent fraction of low control |  | 
5 | CCC1=C(C(=O)OC)C(c2cc(F)cc(F)c2)c2c(sc(C(=O)c3ccc(F)c(F)c3)c2N)N1 (stereo not shown) [Compound 170] | 0.00189 |  | 262.16 per cent fraction of low control |  | 
6 | COC(=O)C1=C(C(C)C)Nc2sc(C(=O)c3ccc(Cl)c(Cl)c3)c(N)c2C1c1ccccc1 (stereo not shown) [Compound 116] | 0.07 |  | 107.57 per cent fraction of low control |  | 
7 | CCC(=O)C1=C(CC)Nc2sc(C(=O)c3ccc(C#N)cc3)c(N)c2C1c1ccccc1 (stereo not shown) [Compound 112] |  |  |  | 266.67 ± 57.74 per cent fraction of low control | 
8 | CC(=O)C1=C(C)Nc2sc(C(=O)c3ccc(Cl)c(Cl)c3)c(N)c2C1c1cc(Cl)cc(Cl)c1 (stereo not shown) [Compound 33] |  | 1.95 |  | 143.15 ± 21.22 per cent fraction of low control | 
9 | CCC(=O)C1=C(CC)Nc2sc(C(=O)c3ccc(Cl)c(Cl)c3)c(N)c2C1c1ccccc1 (stereo not shown) [Compound 36] |  | 0.00618 |  | 256.56 ± 24.93 per cent fraction of low control | 
10 | CC(=O)C1=C(C)N(C)c2sc(C(=O)c3ccccc3)c(N)c2C1c1ccccc1 (stereo not shown) [Compound 208, 1-(3-amino-2-benzoyl-6,7 dimethyl-4-phenyl-4,7 dihydro-thieno[2,3-b]pyridin-5-yl)-ethanone] |  |  |  |  | Max Plateau (Table 5 (R^4 substituted), NRVM, 72 hours, maximum of dose response fit): 173.33 per cent fraction of low control
11 | CC(=O)C1=C(C)Nc2sc(C(=O)c3ccc(Cl)c(Cl)c3)c(N)c2C1c1ccc(O)cc1 (stereo not shown) [Compound 23] |  | 0.339 |  | 277.53 ± 33.46 per cent fraction of low control | 
12 | CCC(=O)C1=C(CC)Nc2sc(C(=O)c3ccc(Cl)c(Cl)c3)c(N)c2C1c1cccc([N+](=O)[O-])c1 (stereo not shown) [Compound 58] |  | 0.129 |  | 232.20 ± 56.57 per cent fraction of low control | 
13 | COc1cccc(C2C(C(C)=O)=C(C)Nc3sc(C(=O)c4ccccc4)c(N)c32)c1 (stereo not shown) [Compound 15] |  |  |  | 126.50 ± 24.27 per cent fraction of low control | 
14 | CC(=O)C1=C(C)Nc2sc(C(=O)c3ccc(Cl)c(Cl)c3)c(N)c2C1c1ccccc1Cl (stereo not shown) [Compound 13] |  | 0.0825 |  |  | 
15 | CCC(=O)C1=C(CC)Nc2sc(C(=O)c3ccc(F)cc3)c(N)c2C1c1ccccc1 (stereo not shown) [Compound 79] |  | 0.0408 |  | 241.90 ± 15.79 per cent fraction of low control | 

More lines, main results first:

Row | EC50 [1] [µM] | EC50 [3] [µM] | Structure (SMILES) | Max Plateau [2] | Max Plateau [4] | further results
16 | 0.197 |  | CCC1=C(C(=O)OC(C)CC)C(c2ccccc2F)c2c(sc(C(=O)c3ccc(Cl)c(Cl)c3)c2N)N1 (single isomer, unassigned) [Compound 162] | 183.22 per cent fraction of low control |  | 
17 | 0.00678 |  | CCOC(=O)C1=C(CC)Nc2sc(C(=O)c3ccc(Cl)c(Cl)c3)c(N)c2C1c1ccccc1F (stereo not shown) [Compound 142] | 194.32 per cent fraction of low control |  | 
18 |  | 0.0581 | CCC(=O)C1=C(CC)Nc2sc(C(=O)c3ccc(Cl)c(Cl)c3)c(N)c2C1c1ccccc1Cl (stereo not shown) [Compound 53] |  | 259.43 ± 26.30 per cent fraction of low control | 
19 | 1.71 |  | CCC1=C(C(=O)OCC(C)OC)C(c2ccccc2F)c2c(sc(C(=O)c3cccc(C#N)c3)c2N)N1 (stereo not shown) [Compound 185] | 172.89 ± 23.52 per cent fraction of low control |  | 
20 | 0.0776 |  | CCC1=C(C(=O)OC(C)COC)C(c2ccccc2F)c2c(sc(C(=O)c3cccc(C#N)c3)c2N)N1 (stereo not shown) [Compound 193] | 230.28 ± 6.46 per cent fraction of low control |  | 
21 | 0.00403 |  | CCOC(=O)C1=C(CC)Nc2sc(C(=O)c3cc(Cl)ccc3Cl)c(N)c2C1c1ccccc1 (stereo not shown) [Compound 146] | 213.49 per cent fraction of low control |  | 
22 | 0.0143 |  | CCC1=C(C(=O)OC)C(c2c(F)cccc2F)c2c(sc(C(=O)c3cccc([N+](=O)[O-])c3)c2N)N1 (stereo not shown) [Compound 141] | 261.69 per cent fraction of low control |  | 
23 | 0.123 |  | CCOC(=O)C1=C(CC)Nc2sc(C(=O)c3ccc(Cl)cc3Cl)c(N)c2C1c1ccccc1 (stereo not shown) [Compound 145] | 224.48 per cent fraction of low control |  | 
24 |  | 0.00167 | CCC(=O)C1=C(CC)Nc2sc(C(=O)c3c(Cl)cccc3Cl)c(N)c2C1c1ccccc1F (stereo not shown) [Compound 107] |  | 273.85 ± 29.06 per cent fraction of low control | 
